Reference: US6506766B1 (Abbott Laboratories, priority 1998, dated 2003)
Where two headings read alike, the source gives them in different places.

Legend:
[1] = molecular target: T1, human glucocorticoid receptor-α [GRX] isoform (Homo sapiens, UniProt P04150); test: Radioligand binding with human glucocorticoid receptor cytosol ([3H]-dexamethasone competition)
T1 construct: host or cells: insect SF21 cells (baculovirus)
T1 sequence (P04150 1-777): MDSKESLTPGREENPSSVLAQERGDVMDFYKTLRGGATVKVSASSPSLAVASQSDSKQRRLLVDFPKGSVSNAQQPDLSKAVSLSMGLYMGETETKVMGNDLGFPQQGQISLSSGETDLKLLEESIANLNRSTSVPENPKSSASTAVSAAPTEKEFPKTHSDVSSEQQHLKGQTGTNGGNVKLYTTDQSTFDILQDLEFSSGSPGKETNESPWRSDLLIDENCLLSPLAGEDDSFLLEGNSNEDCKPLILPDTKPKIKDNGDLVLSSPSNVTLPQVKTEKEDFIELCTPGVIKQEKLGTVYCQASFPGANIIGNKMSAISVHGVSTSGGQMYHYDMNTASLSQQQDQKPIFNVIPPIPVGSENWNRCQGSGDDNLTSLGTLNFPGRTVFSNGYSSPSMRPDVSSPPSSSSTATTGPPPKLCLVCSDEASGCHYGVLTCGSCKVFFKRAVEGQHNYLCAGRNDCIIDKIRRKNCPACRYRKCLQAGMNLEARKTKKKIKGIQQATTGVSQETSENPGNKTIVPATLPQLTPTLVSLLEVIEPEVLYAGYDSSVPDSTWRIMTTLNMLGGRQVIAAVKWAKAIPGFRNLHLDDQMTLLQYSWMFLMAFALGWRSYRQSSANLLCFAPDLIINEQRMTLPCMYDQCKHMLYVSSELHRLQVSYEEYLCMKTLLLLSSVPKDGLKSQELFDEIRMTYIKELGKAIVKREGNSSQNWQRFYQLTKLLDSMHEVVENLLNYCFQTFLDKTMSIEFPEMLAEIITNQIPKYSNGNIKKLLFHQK

[2] = molecular target: T2, human progesterone receptor-A [PRA] isoform (Homo sapiens, UniProt P06401); test: Radioligand binding with human progesterone receptor cytosol ([3H]-progesterone competition); settings: read-out: Ki (nM) PR
T2 construct: host or cells: insect SF21 cells (baculovirus)
T2 sequence (P06401 1-769 isoform P06401-2): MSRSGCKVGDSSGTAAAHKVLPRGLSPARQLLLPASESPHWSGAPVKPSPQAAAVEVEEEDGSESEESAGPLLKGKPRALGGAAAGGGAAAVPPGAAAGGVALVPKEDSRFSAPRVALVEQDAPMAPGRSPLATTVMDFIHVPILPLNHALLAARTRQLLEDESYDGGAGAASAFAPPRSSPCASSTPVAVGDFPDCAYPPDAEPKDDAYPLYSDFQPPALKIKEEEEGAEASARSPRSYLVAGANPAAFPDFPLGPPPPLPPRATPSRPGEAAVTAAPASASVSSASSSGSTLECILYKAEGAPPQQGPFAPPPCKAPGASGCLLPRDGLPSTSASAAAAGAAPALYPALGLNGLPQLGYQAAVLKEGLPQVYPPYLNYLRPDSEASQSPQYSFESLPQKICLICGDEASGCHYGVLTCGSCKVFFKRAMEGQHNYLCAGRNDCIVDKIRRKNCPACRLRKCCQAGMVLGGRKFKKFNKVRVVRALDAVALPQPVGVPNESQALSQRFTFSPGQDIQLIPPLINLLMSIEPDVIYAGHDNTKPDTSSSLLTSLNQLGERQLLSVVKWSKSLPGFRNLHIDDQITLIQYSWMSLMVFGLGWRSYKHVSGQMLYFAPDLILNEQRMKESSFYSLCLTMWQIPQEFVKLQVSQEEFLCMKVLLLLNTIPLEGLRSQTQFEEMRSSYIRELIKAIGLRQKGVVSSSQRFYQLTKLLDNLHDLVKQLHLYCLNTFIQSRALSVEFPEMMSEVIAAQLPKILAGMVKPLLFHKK

[3] = GRX cytosol expressed in insect SF21 cells, [3H]-Dex ~0.9 nM, 4° C. overnight, Ki by Cheng-Prusoff, KL ~[…], read-out: Ki (nM) GR
[4] = PRA cytosol expressed in insect SF21 cells, [3H]Prog ~0.8 nM, 4° C. overnight, Ki by Cheng-Prusoff, KL ~4.5 nM

Row | Molecule | Ki [1, 3] [nM] | Ki [2, 4] [nM] | Ki ([1]; Ki (nM) GR, GRX cytosol expressed in insect SF21 cells, [3H]-Dex ~0.9 nM, 4° C. overnight, Ki by Cheng-Prusoff, KL ~[…]) [nM] | Ki ([1]; read-out: Ki (nM) GR) [nM] | Ki [2] [nM]
1 | CCCCCCOc1cccc(C2Oc3cccc(OC)c3-c3ccc4c(c32)C(C)=CC(C)(C)N4)c1 (centres unmarked) [Example 90, 5-(3-Hexyloxyphenyl)-2,5-dihydro-10-methoxy-2,2,4-trimethyl-1H-[1]benzopyrano[3,4-f]quinoline] | 7.6 | ≥ 10000 | – | – | –
2 | C=CCC1Oc2ccc(OC(=O)CNC(N)=O)c(OC)c2-c2ccc3c(c21)C(C)=CC(C)(C)N3 (racemic) [Example 432, (+/−)2,5-Dihydro-9-(N-carbamoyl-2-aminoacetoxy)-10-methoxy-2,2,4-trimethyl-5-allyl-1H-[1]benzopyrano[3,4-f]quinoline] | 1.4 | 207 | – | – | –
3 | 5-Butyl-2,5-dihydro-9-hydroxy-10-methoxy-2,2,4-trimethyl-1H-[1]benzopyrano[3,4-f]quinoline [Example 251] | – | – | – | 0.87 | 163
4 | C=CCCC1Oc2cccc(OC)c2-c2ccc3c(c21)C(C)=CC(C)(C)N3 (centres unmarked) [Example 68, 5-(32-Butenyl)-2,5-dihdro-10-methoxy-2,2,4-trimethyl-1H -1H-[1]benzopyrano[3,4-f]quinoline] | 8 | 9050 | – | – | –
5 | C=CCC1Oc2ccc(OCSC)c(OC)c2-c2ccc3c(c21)C(C)=CC(C)(C)N3 (centres unmarked) [Example 436, 2,5-Dihydro-9-methylthiomethoxy-10-methoxy-2,2,4-trimethyl-5-allyl-1H-[1]benzopyrano[3,4-f]quinoline] | 18.8 | 5920 | – | – | –
6 | COc1cccc2c1-c1ccc3c(c1C(c1ccccn1)O2)C(C)=CC(C)(C)N3 (centres unmarked) [Example 213, 2,5-Dihydro-10-methoxy-5-(2-pyridyl)-2,2,4-trimethyl-1H-[1]benzopyrano[3,4-f]quinoline] | 67 | ≥ 10000 | – | – | –
7 | C=CCC1Oc2c(C(C)=O)ccc(OC)c2-c2ccc3c(c21)C(C)=CC(C)(C)N3 (centres unmarked) [Example 306, 10-Methoxy-7-acetyl-5-(3-propenyl)-2,2,4-trimethyl-1H-2,5-dihydro-[1]benzopyrano[3,4-f]quinoline] | 717 | 4460 | – | – | –
8 | COc1cccc2c1-c1ccc3c(c1[C@H]([C@H]1C=CCCC1)O2)C(C)=CC(C)(C)N3 [Example 392, (−)(5S,3′R)2,5-Dihydro-10-methoxy-2,2,4-trimethyl-5-(cyclohexen-3-yl)-1H-[1]benzopyrano[3,4-f]quinoline] | – | 487 | 1.2 | – | –
9 | COc1c(O)ccc2c1-c1ccc3c(c1[C@H]([C@H]1C=CCCCC1)O2)C(C)=CC(C)(C)N3 [Example 247, (−)(5S,3′R)2,5-Dihydro-9-hydroxy-10-methoxy-2,2,4-trimethyl-5-(3-cycloheptenyl)-1H-[1]benzopyrano[3,4-f]quinoline] | 0.86 | 195 | – | – | –
10 | COc1cccc2c1-c1ccc3c(c1C(c1cc(C)cc(-c4ccco4)c1)O2)C(C)=CC(C)(C)N3 (centres unmarked) [Example 16, 5-[3-(2-Furanyl)-5-methylphenyl]-2,5-dihydro-10-methoxy-2,2,4-trimethyl-1H-[1]benzopyrano[3,4-f]quinoline] | 8 | ≥ 10000 | – | – | –
11 | CC1=CC(C)(C)Nc2ccc3c(c21)C(c1ccc(F)c(F)c1)Oc1ccc(O)c(Cl)c1-3 (centres unmarked) [Example 226, 10-Chloro-9-hydroxy-5-(3,4-difluorophenyl)-2,2,4-trimethyl-1H-2,5-dihydro-[1]benzopyrano[3,4-f]quinoline] | 2.6 | 220 | – | – | –

Now from value to molecule, other results behind:

Row | Ki [1, 3] [nM] | Ki [2, 4] [nM] | Ki ([1]; Ki (nM) GR, GRX cytosol expressed in insect SF21 cells, [3H]-Dex ~0.9 nM, 4° C. overnight, Ki by Cheng-Prusoff, KL ~[…]) [nM] | Molecule | Ki ([1]; read-out: Ki (nM) GR) [nM] | Ki [2] [nM]
12 | 240 | ≥ 10000 | – | COc1cccc2c1-c1ccc3c(c1C(c1ccccc1)O2)C(C)=CC(C)(C)N3 (single isomer, unassigned) [Example 25, (±)-2,5-Dihydro-10-methoxy-2,2,4-trimethyl-5-phenyl-1H-[1]benzopyrano-[3,4-f]quinoline] | – | –
13 | 424 | ≥ 10000 | – | C=CCC1Oc2cccc(OC)c2-c2ccc3c(c21)C=C(C)C(C)(C)N3 (centres unmarked) [Example 364, 2,5-Dihydro-10-methoxy-2,2,3-trimethyl-5-allyl-1H-[1]benzopyrano[3,4-f]quinoline] | – | –
14 | 0.63 | 476 | – | C=CCC1Oc2ccc(OC(=O)CCC(=O)N(C)C)c(OC)c2-c2ccc3c(c21)C(C)=CC(C)(C)N3 (centres unmarked) [Example 296, 2,5-Dihydro-9-(4-N,N-dimethylamino-4-oxo-butanoyloxy)-10-methoxy-2,2,4-trimethyl-5(2-propenyl)-1H-[1]benzopyrano[3,4-f]quinoline] | – | –
15 | 1.1 | 75.1 | – | CC1=CC(C)(C)Nc2ccc3c(c21)C(C(C)C)Oc1ccc(O)c(Cl)c1-3 (centres unmarked) [Example 405, 2,5-Dihydro-9-hydroxy-10-chloro-2,2,4-trimethyl-5-isopropyl-1H-[1]benzopyrano[3,4-f]quinoline] | – | –
16 | 25.5 | 7300 | – | CCc1cccc2c1-c1ccc3c(c1C(c1ccccc1)O2)C(C)=CC(C)(C)N3 (centres unmarked) [Example 70, 10-Ethyl-2,5-dihydro-2,2,4-trimethyl-5-phenyl-1H-[1]benzopyrano[3,4-f]quinoline] | – | –
17 | 7.7 | 484 | – | CC1=CC(C)(C)Nc2ccc3c(c21)C(c1ccccc1)Oc1cccc(C)c1-3 (centres unmarked) [Example 71, 2,5-Dihydro-2,2,4,10-tetrametnyl-5-phenyl-1H-[1]benzopyrano[3,4-f]quinoline] | – | –
18 | 179 | 10900 | – | CC(=O)Oc1cccc2c1-c1ccc3c(c1C(c1ccccc1)O2)C(C)=CC(C)(C)N3 (centres unmarked) [Example 10, 2,5-Dihydro-2,2,4-trimethyl-5-phenyl-1H-[1]benzopyrano[3,4-f]quinoline-10-ol Acetate (Ester)] | – | –
19 | 3.3 | 702 | – | CC1=CC(C)(C)Nc2ccc3c(c21)C(c1ccccc1)Oc1cccc(C=O)c1-3 (centres unmarked) [Example 337, 2,5-Dihydro-10-formyl-5-phenyl-2,2,4-trimethyl-1H-[1]benzopyrano[3,4-f]quinoline] | – | –
20 | 2.7 | 4060 | – | COc1cccc2c1-c1ccc3c(c1[C@@H]([C@H]1C=C(CO)CCC1)O2)C(C)=CC(C)(C)N3 (relative stereo) [Example 149] | – | –
21 | 11.9 | 4880 | – | C=CCNc1cccc2c1-c1ccc3c(c1C(c1cc(Cl)cc(Cl)c1)O2)C(C)=CC(C)(C)N3 (centres unmarked) [Example 74, 5-(3,5-Dichlorophenyl)-2,5-dihydro-2,2,4-trimethyl-N-(2-propenyl)-1H-[1]benzopyrano[3,4-f]quinolin-10-amine] | – | –
22 | 0.84 | 1950 | – | COc1c(OC(=O)CCC(=O)N(C)C)ccc2c1-c1ccc3c(c1C(Cc1ccccc1)O2)C(C)=CC(C)(C)N3 (centres unmarked) [Example 424, 2,5-Dihydro-9-(4-N,N-dimethylamino-4-oxo-butanoyloxy)-10-methoxy-5-(phenylmethyl)-2,2,4-trimethyl-1H-[1]benzopyrano[3,4-f]quinoline] | – | –
23 | 59.8 | ≥ 10000 | – | COc1cccc2c1-c1ccc3c(c1C(c1ccccc1)O2)C(C)=[N+]([O-])C(C)(C)N3 (centres unmarked) [Example 357, 2,5-Dihydro-10-methoxy-2,2,4-trimethyl-3-oxide-5-phenyl-1H-[1]benzopyrano[3,4-f]quinazoline] | – | –
24 | 0.86 | ≥ 10000 | – | COc1cccc2c1-c1ccc3c(c1[C@H]([C@H]1C=C(CO)CCC1)O2)C(C)=CC(C)(C)N3 [Example 155] | – | –
25 | 1.6 | 227 | – | CC1=CC(C)(C)Nc2ccc3c(c21)C(c1cccc(C(F)(F)F)c1)Oc1ccc(O)c(Cl)c1-3 (centres unmarked) [Example 218, 10-Chloro-9-hydroxy-5-(3-trifluoromethylphenyl)-2,2,4-trimethyl-1H-2,5-dihydro-[1]benzopyrano[3,4-f]quinoline] | – | –
